Data reported in DBAASP.
In brackets after ≈: the same amount, converted by molar mass.

Assays:
Test in all cases: ≥ marks a high value that may be exact or a test limit, other limits are often not marked, values filed in µg/mL are converted to µM
[1] = test system: Candida albicans ATCC 24433
[2] = test system: Escherichia coli ATCC 25922
[3] = test system: Staphylococcus epidermidis ATCC 12228
Bacillus subtilis 168 HT = test system: Bacillus subtilis 168 HT
[4] = test system: Escherichia coli K12 MG1655
[5] = test system: Candida albicans NCYC 1467
[6] = test system: Escherichia coli NCTC 10418
[7] = test system: Pseudomonas aeruginosa ATCC 27853
[8] = test system: Staphylococcus aureus NCTC 10788
[9] = test system: Listeria monocytogenes ATCC 19115

`CC[C@H](C)[C@H](NC(=O)CNC(=O)CNC(=O)[C@H](C)NC(=O)[C@@H](NC(=O)[C@H](CCCCN)NC(=O)[C@@H]1CCCN1C(=O)[C@@H](NC(=O)[C@H](CC(C)C)NC(=O)[C@H](CO)NC(=O)[C@H](CC(C)C)NC(=O)[C@@H](N)Cc1ccccc1)[C@@H](C)CC)[C@@H](C)CC)C(=O)N[C@@H](C)C(=O)N[C@@H](CO)C(=O)N[C@@H](CC(C)C)C(=O)N[C@H](C(=O)N[C@@H](CCCCN)C(=O)N[C@@H](CC(=O)O)C(=O)N[C@@H](CC(C)C)C(N)=O)C(C)C` [FLSLIPKIAGGIASLVKDL] showed an MIC [1] of no less than 100 µM, an MIC [2] of 100 µM (≈ 195 µg/mL) and an MIC [3] of 100 µM (≈ 195 µg/mL).
`CC[C@H](C)[C@H](NC(=O)CNC(=O)CNC(=O)[C@H](C)NC(=O)[C@@H](NC(=O)[C@H](CCCCN)NC(=O)[C@@H]1CCCN1C(=O)[C@@H](NC(=O)[C@H](CC(C)C)NC(=O)[C@H](CO)NC(=O)[C@H](CC(C)C)NC(=O)[C@@H](N)Cc1ccccc1)[C@@H](C)CC)[C@@H](C)CC)C(=O)N[C@@H](C)C(=O)N[C@@H](CO)C(=O)N[C@@H](CC(C)C)C(=O)N[C@H](C(=O)N[C@@H](CCCCN)C(=O)N[C@@H](CC(N)=O)C(=O)N[C@@H](CC(C)C)C(N)=O)C(C)C` [FLSLIPKIAGGIASLVKNL] was tested, and the MIC [1] was no less than 50 µM, the MIC [2] was 25 µM (≈ 48.8 µg/mL) and the MIC [3] was 6.25 µM (≈ 12.2 µg/mL).
For `CC[C@H](C)[C@H](N)C(=O)N[C@@H](CC(N)=O)C(=O)N[C@H](C(=O)N[C@H](C(=O)N[C@@H](CC(N)=O)C(=O)N[C@@H](C)C(=O)N1CCC[C@H]1C(=O)N[C@@H](CC(C)C)C(=O)N[C@@H](CCC(N)=O)C(=O)NCC(=O)N[C@@H](Cc1ccccc1)C(=O)N[C@@H](CCCCN)C(=O)N[C@H](C(=O)N[C@@H](C)C(=O)O)[C@@H](C)CC)[C@@H](C)CC)[C@@H](C)CC` [INIINAPLQGFKIA], the MIC (Bacillus subtilis 168 HT) was 21.2 µM (≈ 32 µg/mL) and the MIC [4] was 10.6 µM (≈ 16 µg/mL).
For `CC(C)C[C@H](NC(=O)[C@H](CCCN=C(N)N)NC(=O)[C@H](CC(N)=O)NC(=O)[C@H](CC(C)C)NC(=O)[C@H](CCCCN)NC(=O)[C@H](CCCCN)NC(=O)[C@H](CC(C)C)NC(=O)[C@@H](NC(=O)[C@@H](N)CC(N)=O)C(C)C)C(=O)N[C@@H](CCCCN)C(=O)N[C@@H](CCC(=O)O)C(=O)N[C@@H](CCCCN)C(=O)N[C@@H](CC(N)=O)C(=O)N[C@@H](CCCCN)C(=O)N[C@@H](C)C(=O)N[C@@H](CCCCN)C(=O)N[C@@H](CC(N)=O)C(=O)N[C@@H](CO)C(=O)N[C@@H](CCCCN)C(=O)N[C@@H](CCC(=O)O)C(=O)N[C@@H](CC(N)=O)C(=O)N[C@@H](CC(N)=O)C(=O)O` [NVLKKLNRLKEKNKAKNSKENN], the MIC [5] was no less than 98 µM, the MIC [6] was no less than 196 µM and the MIC [7] was greater than 196 µM. For the same compound, the MIC [8] was no less than 196 µM.
Work on `CC(C)C[C@H](NC(=O)[C@H](Cc1ccccc1)NC(=O)[C@@H]1CCCN1C(=O)[C@@H]1CCCN1C(=O)[C@H](CC(N)=O)NC(=O)[C@@H](NC(=O)[C@@H](NC(=O)[C@@H]1CCCN1C(=O)[C@@H](N)[C@@H](C)O)C(C)C)C(C)C)C(=O)N[C@@H](CCC(N)=O)C(=O)N[C@@H](CCC(N)=O)C(=O)N[C@H](C(N)=O)[C@@H](C)O` [TPVVNPPFLQQT] yielded an MIC [9] of no less than 382 µM.
